Measured values published in patent US20110059475A1, “STABILISATION OF BLOOD CELL CONJUGATES” (THE UNIVERSITY OF NOTTINGHAM, priority 2008, published 2011).
“Also recorded” adds a separate entry of the source.

What was measured:
[1] = tested on: platelets; experiment: Whole blood platelet aggregation: flow cytometric single platelet count in fixed and stabilised citrate-anticoagulated blood; format: cell-based
From the text: Referring to FIG. 1, there are illustrated dot plots by which the number of single platelets may be quantified. Once the number of single platelets has been determined, it is then possible to calculate the percentage degree of platelet aggregation. Quantification of single platelets in whole blood by flow cytometry required 50,000 red cell events which were collected in region P1 on a forward scatter/side scatter plot, as shown in FIG. 1a. CD42a fluorescence was plotted against forward scatter, and region P2 was selected by drawing a curved line to include all platelet-related events and excluding erythrocyte/platelet co-incidences marked “e/p”, as shown in FIG. 1b. EDTA-anti-coagulated blood, or citrate anti-coagulated blood containing EDTA thus containing unstimulated platelets, was used to set three rectangular gates to quantitate microparticles (P3), single platelets (P4), and microaggregates (P5). These gates were then applied to the dot plots obtained for stimulated samples of blood, recording single platelets in P4. An example of results from an ADP-stimulated, fixed sample in which the single platelet events (P4) reduced from 1716 to 182 (indicating the formation of platelet aggregates) is shown in FIGS. 1d, 1e and 1f.
Fixed and stabilised blood samples were mixed gently by repeated inversion of the sample tubes. 100 μl of the fixed blood was placed in a flow cytometry tube and centrifuged at 380 g for 5 minutes after which 90 μl of the supernatant is removed. The remaining 10 μl of fixed blood was then incubated with 10 μl of a 1 in 10 dilution of CD42a-FITC-labelled antibody for 20 min at 4° C. in the FACS tubes. 1 ml of FACSflow (or any other flow cytometry diluent) was added to the tubes immediately prior to reading on any flow cytometer equipped with a laser operating at an excitation wavelength of 488 nm and with detectors for measurement at suitable wavelengths for the selected fluorochromes (ie FITC). Appropriate software was used to acquire and analyse data on dot plots of forward scatter versus side scatter and forward scatter versus FITC fluorescence acquired with logarithmic amplification. Acquisition was stopped after recording 50,000 erythrocyte events. A sample of fixed unstimulated EDTA-anti-coagulated blood was used to set the vertical lines of three square gates P3, P4 and P5 on a forward scatter versus FITC fluorescence plot. These gates were adjusted to record microparticles in P3, single platelets in P4 and any microaggregates in P5 (see Example 2). The test samples are then analysed using the same gates. Larger aggregates would not be detected by the flow cytometer since they would be too large and cannot pass through the sample tube of the machine.
The single platelet count described above is a record of the number of single platelets present in each blood sample (recorded as single platelet events, ie the number of single platelets passing the laser) in relation to 50,000 erythrocyte events recorded, ie erythrocytes passing the laser. It is possible to calculate a true platelet count by using standard flow cytometry counting beads, such as those sold under the trade name Trucount. Aggregation is usually determined as a percentage, and in whole blood this may be recorded as a percentage fall in single platelets. […] It is therefore possible to calculate percentage aggregation directly from the recordings of single platelet events using the following formula:—
Where “EDTA count” is the number of platelet events (ie single platelets passing the laser) for a sample containing EDTA which has been fixed in the same way as the test samples, and where “Sample count” is the number of platelet events for the fixed test sample. […]

[2] = tested on: platelet-monocyte conjugates; experiment: Platelet-monocyte conjugates by flow cytometry (CD14 with CD42a or CD62P) in fixed and stabilised blood; format: cell-based; conditions: after incubation with collagen
Procedure: (§1) For example, fixed and stabilised samples are removed from the fridge and mixed well until the sedimented cells are fully re-suspended. 500 μl of each sample is then dispensed into appropriately labelled flow cytometry tubes and centrifuged for 10 min at 380 g. 450 μl of the supernatant is then removed, taking care not to disturb the red blood cell pellet. 10 μl of saturating concentrations of CD14-APCCy7 (used to distinguish monocytes and neutrophils) and CD42a-FITC or CD62P-PE (used to identify platelets bound to either monocytes or neutrophils) is then added to the tubes and incubated with the cells in the dark. After 25 minutes, 1 ml of Erythrolyse solution (AbD Serotec, Oxford, UK) is added to the cells and left to stand for 10 minutes to lyse any red blood cells. 1 ml of FACSflow is added and the cells centrifuged at 380 g. Supernatants are decanted and cells re-suspended in 2 ml of FACSflow to wash the cells. The cells are then centrifuged at 380 g again, the supernatant removed and the cells finally re-suspended in 300 μl of FACSflow to await reading on the flow cytometer.
(§2) Leukocytes are initially identified by logical gating from dot plots of forward scatter (cell size) and side scatter (cell granularity) profiles acquired with linear amplification. Fluorescence parameters are acquired with logarithmic amplification and 30,000 leukocyte events are collected for each blood sample. […] Lymphocytes may also be identified by CD14 negativity and a low forward scatter/side scatter profile, but platelet-lymphocyte conjugates are formed to a lesser extent and are not routinely quantitated. Platelet-monocyte and platelet-neutrophil conjugates are quantified as the percentage of monocytes or neutrophils expressing platelet CD42a or CD62P fluorescence in an interval gate which may be adjusted using an appropriate IgG control in each case. Median fluorescence values for CD42a or CD62P are also measured for each population of leukocytes tested. […]

[3] = tested on: platelet-neutrophil conjugates; experiment: Platelet-neutrophil conjugates by flow cytometry (CD14 with CD42a or CD62P) in fixed and stabilised blood; format: cell-based; conditions: after incubation with collagen
Procedure: as §1, §2
Referring to FIG. 10, there are shown dot plots used for the identification of platelet-leukocyte conjugates in fixed and stabilised blood samples following incubation with (a) saline, or (b) collagen. […] Platelet-monocyte and platelet-neutrophil conjugate formation following stimulation with collagen is seen as a shift to the right in plot (iii) as the degree of platelet-specific CD42a fluorescence (ie marker expression) increases.
Referring to FIG. 12, there is shown the quantification of platelet-neutrophil conjugates (identified from gates P1 and P4 as shown in FIG. 10) which are detected with the platelet-specific markers CD42a or CD62P. […]

[4] = tested on: platelets; experiment: ADP-induced platelet aggregation in blood of volunteers before and after treatment with clopidogrel or clopidogrel plus aspirin; conditions: ADP 10 μM stimulant tube, citrate blood, percentage of EDTA sample

Platelet Activating Factor [PAF]
degree of aggregation (percentage fall in single platelets) ([1]; 3 μM PAF, same donor, citrate-anticoagulated blood): 70%

Thrombin Receptor Activating Peptide [TRAP]
degree of aggregation (percentage fall in single platelets) ([1]; 10 μM TRAP, same donor, citrate-anticoagulated blood): 89%

collagen
platelet-monocyte conjugates, percentage of parent monocyte population (CD42a, % gated) ([2]; saline 8.2): 64.1%
platelet-monocyte conjugates, percentage of parent monocyte population (CD62P, % gated) ([2]; saline 9.3): 98.7%
CD42a median fluorescence of monocyte population ([2]; saline 259): 832 arbitrary units
single platelet events in P4 (sample count) ([1]; collagen 1 μg/ml, 4 minutes, per 50,000 erythrocyte events, EDTA count 1118): 693
degree of aggregation (percentage fall in single platelets compared with EDTA sample) ([1]; collagen 1 μg/ml, stirred 4 minutes, citrate-anticoagulated blood): about 38%
platelet-neutrophil conjugates, percentage of parent neutrophil population (CD62P, % gated) ([3]; saline 7.3): 72.1%
platelet-neutrophil conjugates, percentage of parent neutrophil population (CD42a, % gated) ([3]; saline 7.9): 21.9%
CD62P median fluorescence of neutrophil population ([3]; saline 141): 688
CD42a median fluorescence of neutrophil population ([3]; saline 142): 201

CCCCC[C@H](O)/C=C/[C@@H]1[C@@H](C/C=C\CCCC(=O)O)[C@H]2CO[C@@H]1C2 [U46619]
degree of aggregation (percentage fall in single platelets) ([1]; 1 μM U46619, same donor, citrate-anticoagulated blood): 96%

CCCCC/C=C\C/C=C\C/C=C\C/C=C\CCCC(=O)O [AA, arachidonic acid]
degree of aggregation (percentage fall in single platelets) ([1]; 200 nM arachidonic acid, same donor, citrate-anticoagulated blood): 54%

CC(=O)Oc1ccccc1C(=O)O [aspirin]
effect on collagen-induced platelet aggregation ([1]; collagen 1, 2, 3, 4 μg/ml for 10 minutes, presence vs absence of aspirin, three donors): significantly reducing the amount of aggregation

Nc1ncnc2c1ncn2[C@@H]1O[C@H](COP(=O)(O)OP(=O)(O)O)[C@@H](O)[C@H]1O [ADP, adenosine diphosphate]
aggregation (percentage fall in single platelets) ([1]; 1 μM ADP, stirred 4 minutes): 27%
aggregation (percentage fall in single platelets) ([1]; 3 μM ADP, stirred 4 minutes): 62%
aggregation (percentage fall in single platelets) ([1]; 10 μM ADP, stirred 4 minutes): 89%
single platelet events (P4) ([1]; ADP-stimulated fixed sample, per 50,000 red cell events, unstimulated 1716): 182

COC(=O)[C@H](c1ccccc1Cl)N1CCc2sccc2C1 [clopidogrel]
platelet aggregation after treatment compared with before treatment [4]: less aggregation; also recorded: inhibited
